Assay results reported in patent US7456185B2, “Substituted quinazoline compounds useful as p38 kinase inhibitors” (Roche Palo Alto LLC, priority 2003, dated 2008).

SMILES	melting point [°C]
CC(C)Nc1ncc2cc(Oc3ccc(F)cc3F)ccc2n1 [Example 2]	160 to 162.6
CS(=O)(=O)CCNc1ncc2cc(Oc3ccc(F)cc3F)ccc2n1 [Example 5]	160.1 to 161.5
CS(=O)(=O)N1CCC(Nc2ncc3cc(Oc4ccc(F)cc4F)ccc3n2)CC1 [Example 6]	173.9 to 177.1
OC1CCC(Nc2ncc3cc(Oc4ccc(F)cc4F)ccc3n2)CC1 (centres unmarked) [Example 8, 4-[6-(2,4-Difluoro-phenoxy)-quinazolin-2-ylamino]-cyclohexanol]	176.2 to 176.8
CCOc1ccc2nc(NCC[S+](C)[O-])ncc2c1 (centres unmarked) [Example 11, (6-Ethoxy-quinazolin-2-yl)-(2-methanesulfinyl-ethyl)-amine]	152.7 to 154.6

The remaining lines, values ahead:

melting point [°C]	SMILES
110 to 112.9	CCC(CO)(CO)Nc1ncc2cc(Oc3ccc(F)cc3F)ccc2n1 [Example 1, 2-[6-(2,4-Difluoro-phenoxy)-quinazolin-2-ylamino]-2-ethyl-propane-1,3-diol]
112.9 to 113.6	OCCC(CCO)Nc1ncc2cc(Oc3ccc(F)cc3F)ccc2n1 [Example 3, 3-[6-(2,4-Difluorophenoxy)-quinazolin-2-ylamino]-pentane-1,5-diol]
161.5 to 162.7	OCC(O)CNc1ncc2cc(Oc3ccc(F)cc3F)ccc2n1 (centres unmarked) [Example 4, 3-[6-(2,4-Difluoro-phenoxy)-quinazolin-2-ylamino]-propane-1,2-diol]
